Data taken from US20250049930A1, “PROTAC MOLECULES TARGETING FOXP3 AND USES THEREOF” (CEDARS-SINAI MEDICAL CENTER, priority 2022, published 2025).
“Also recorded” adds a separate entry of the source. No end group written: not given here.

Tested on: RENCA tumors
Test: Subcutaneous RENCA tumor growth in mice
Assay type: in vivo
Settings: s.c. RENCA in Balb/C mice, i.p. treatment from day 10, vs saline
Experimental: Mice: Balb/C mice, 5-8 weeks old, were purchased from Jackson laboratory (Ellsworth, Maine) and housed under pathogen free conditions. All experiments involving animals followed federal and state standards, which include the federal Animal Welfare Act and the NIH guide for the care and use of laboratory animals. The RENCA tumors were generated by subcutaneously injecting 2×10^5 tumor cells into the frank. The day tumor cells were injected was considered day 0. PF (0.1 mmol), PC (0.1 mmol) or P60 (100 ug) was administered i.p. twice a week starting on day 10; αPD1 (200 μg) was administered i.p. twice a week starting on day 5; temsirolimus (15 μg) was administered i.p. every other day, starting on day 10. All drugs were administered throughout the experimental course unless indicated. CD8 cells were depleted with a one-time αCD8 (200 μg) i.p. administration on day 2.
In cancer, Tregs can suppress the antitumor immune response, which is primarily mediated by CD8+ lymphocytes. Therefore, PF was administered to mice to enhance antitumor immunity and suppress growth of syngeneic mouse kidney cancer, which is considered an immunoresponsive cancer type. Mice tumors were established by injecting RENCA cells subcutaneously in the flank of Balb/C mice (5-7 mice per group). RENCA cells were injected subcutaneously to establish palpable tumors, and 10 days later mice were treated i.p., twice a week throughout the experiment, with PF, PC, P60 or Saline (FIG. 3D). Pomalidomide conjugated to (PEG)4 (PROTAC-control; PC) and P60 served as controls. […] In summary, PF decreased the immunosuppressive function of Tregs in vitro and decreased tumor growth in mice. […]
All immunotherapies, particularly when multi-drug combinations are involved, may have off-target effects. For example, drugs may have direct effects on the tumor, inhibiting tumor proliferation or inducing tumor apoptosis. Mice tumors were established by injecting RENCA cell subcutaneously in the flank of Balb/C mice (6-8 mice per group). 10 days later, mice were treated with PF twice per week. CD8 lymphocytes were depleted with αCD8 administered i.p. 2 days after injection of tumor cells. Mice in indicated groups received i.p. αPD1, twice a week, starting day 5 (FIG. 5A). Mice in indicated groups received i.p. temsirolimus every other day for 14 days, starting on days 10 (FIG. 5B). Tumor growth was monitored in these groups. […]

| Compound | tumor growth, single agent |
| --- | --- |
| CO[C@H]1C[C@@H]2CC[C@@H](C)[C@@](O)(O2)C(=O)C(=O)N2CCCC[C@H]2C(=O)O[C@H]([C@H](C)C[C@@H]2CC[C@@H](OC(=O)C(C)(CO)CO)[C@H](OC)C2)CC(=O)[C@H](C)/C=C(\C)[C@@H](O)[C@@H](OC)C(=O)[C@H](C)C[C@H](C)/C=C/C=C/C=C/1C [temsirolimus] | suppressed tumor growth |
| RDFQSFRKMWPFFAM (not fully specified (some residues)) [P60] | Only PF produced a decrease in tumor growth; also recorded: no effect on RENCA tumor growth |
